Source: patent US20260002109A1, “SYSTEMS AND PROCESSES FOR SKIN TISSUE GROWTH AND ANALYSIS” (Outer Biosciences, Inc., priority 2023, published 2026)

Legend:
[1] = test system: skin tissues; assay: Skin irritation: lactate dehydrogenase (LDH) release; assay type: cell-based; conditions: 2% SDS for 24 hours; compared to untreated samples
Method: A second selection of samples were cultured and subjected to irritating stimuli, whereby a chemical stimulus group was subjected to 2% SDS for 24 hours, a burn group was subjected to 100° C, contact for 90 seconds, and a UV irritation group was subjected to UV-B for 30 minutes. FIGS. 30A-30D illustrate insert images after staining with Masson's Trichrome for untreated, chemical-treated, burn-treated, and UV-treated skin tissues, respectively. FIG. 31A provides an analysis of collagen deposition using histopathological scoring to determine the effects of damage stimuli on each group. As a result of this analysis, both burn and UV irradiation groups were discovered to have reduced collagen deposition compared to the untreated group. […] FIG. 31B provides an analysis of lactate dehydrogenase (LDH) release, which is widely used as a marker for assessing cell death and toxicity. The analysis indicated a significant increase of LDH release from all treatment conditions compared to untreated samples.

[2] = test system: barrier function of the skin; assay: Transepidermal water loss (TEWL) measurement on skin biopsies in inserts; assay type: cell-based; conditions: biopsy edges sealed with Loctite super glue
Text: The purpose of this example is to incorporate sealed sensors into an insert. Sealing the biopsy edge using Loctite super glue, as shown in the photograph in FIG. 18A and the histology stain image in FIG. 18B, allowed the measurement of changes in barrier function with sensitivity, as well as preventing leakage of topically-applied substances into the dermis through the edge of the biopsy as well as allowing for the precise measurement of changes in the barrier function of the skin using clinical sensors.
FIGS. 19A-19B illustrate measurements of transepidermal water loss (TEWL) in model skin that were either not sealed or sealed using Loctite super glue, respectively. TEWL measurements were taken using a Courage+Khazaka Multi Probe Adapter MPA 10. […] FIG. 20 show a comparison in TEWL measurements of the effects of a barrier enhancer (Niacinamide) and a barrier disrupter (SDS) on skin sealed with Loctite super glue over a six-day period.

[3] = test system: normal skin tissue in an insert; assay: Skin irritation: histopathological scoring of H&E stained skin tissue; assay type: cell-based; conditions: 2% for 24 hours, topical; compared to the control group
Method: (§1) The purpose of this example is to test and replicate dynamic changes in skin across various types of clinically relevant stimuli, including skin irritations, intradermal injection. cosmetic product treatment, and antioxidant defense. Approximations of skin irritation evaluated in this manner include topical chemical treatment 261, burn treatment 262, and UV treatment 263, as illustrated in FIGS. 26A-26C, respectively. Chemical irritation was approximated through application of 2% SDS for 24 hours, burns were approximated through 100° C, contact with a heated metal rod for 45 seconds, and UV irritation was approximated via UVA and UV application for 30 minutes. […] Skin tissues were evaluated and scored using the parameters in Table 9 as provided above. Include protocol, histological parameters, histology staining and scoring results, immune and inflammatory responses, antioxidant defense assessment, etc.
FIGS. 28A-28D provide H&E stained tissues for a first selection of untreated. chemical-treated, burn-treated, and UV-treated skin tissue samples, respectively. A pathological analysis of the extent of damage was undertaken and is shown in FIGS. 29A-29C to evaluate epidermal damage, eczematous epidermis, and epidermis thickness, respectively, after application of damage stimuli. […] UV irradiation caused epidermal thinning compared to the control group.

[4] = test system: skin tissues; assay: Skin irritation: collagen deposition by histopathological scoring (Masson's Trichrome); assay type: cell-based; conditions: 2% for 24 hours; compared to the untreated group
Method: as §1
A second selection of samples were cultured and subjected to irritating stimuli, whereby a chemical stimulus group was subjected to 2% SDS for 24 hours, a burn group was subjected to 100° C, contact for 90 seconds, and a UV irritation group was subjected to UV-B for 30 minutes. FIGS. 30A-30D illustrate insert images after staining with Masson's Trichrome for untreated, chemical-treated, burn-treated, and UV-treated skin tissues, respectively. […]

[5] = test system: skin tissue; assay: Tissue longevity analysis: media conditions judged by histology (epidermis and dermis structure) and culture survival; assay type: cell-based, human
Text: Table 5 provides a plurality of media mixtures applied to skin samples to assess the effects of various testing conditions on the skin tissue.

Row | Compound | LDH release [1] | barrier function by TEWL [2] | eczematous epidermis [3] | epidermal damage [3] | thickness of epidermis [3] | collagen deposition [4] | beneficial effect on skin samples ([5]; 0.1 mM on the surface of skin samples) | beneficial effect on skin samples ([5]; 0.5 mM and 1 mM in media)
1 | CCCCCCCCCCCCOS(=O)(=O)[O-].[Na+] [SDS] | highest LDH release | reduction in the barrier function | moderate eczematous (atopic) epidermis | significant epidermal as evidenced by widespread dyskeratotic cells | pathological epidermal thickening (acanthosis) | No significant change in collagen deposition | – | –
2 | [Ca+2].[Cl-].[Cl-] [calcium chloride] | – | – | – | – | – | – | neither testing condition was observed to have any beneficial effect | neither testing condition was observed to have any beneficial effect
